Experimental data from BindingDB's records for doi:10.1016/j.bmcl.2011.01.024 (Amira Pharmaceuticals, 2011).

Assay: Inhibition of human prostanoid DP2 receptor in human whole bood assessed as eosinophil shape change preincubated for 15 mins before addition of PGD2 measured after 5 mins by FACS analysis

SMILES	IC50
CCN(Cc1cc(C(F)(F)F)ccc1-c1cc(CC(=O)O)ccc1OC)C(=O)OC	8 nM
CCN(Cc1cc(C(F)(F)F)ccc1-c1cc(CC(=O)O)ccc1OC)C(=O)OCc1ccccc1Cl	7 nM
CCN(Cc1cc(C(F)(F)F)ccc1-c1cc(CC(=O)O)ccc1OC)C(=O)OCc1ccc(Cl)cc1	6 nM
COC(=O)N(CCc1ccccc1)Cc1cc(C(F)(F)F)ccc1-c1cc(CC(=O)O)ccc1OC	34 nM
COc1ccc(CC(=O)O)cc1-c1ccc(C(F)(F)F)cc1CN(C)C(=O)OCc1ccccc1	9 nM
COc1ccc(CC(=O)O)cc1-c1ccc(C(F)(F)F)cc1CNC(=O)OCc1ccccc1	709 nM

More lines, in order of falling IC50, values ahead:

IC50	SMILES
22 nM	COC(=O)N(Cc1ccccc1)Cc1cc(C(F)(F)F)ccc1-c1cc(CC(=O)O)ccc1OC
7 nM	CCN(Cc1cc(C(F)(F)F)ccc1-c1cc(CC(=O)O)ccc1OC)C(=O)OCc1cccc(Cl)c1
5 nM	CCN(Cc1cc(C(F)(F)F)ccc1-c1cc(CC(=O)O)ccc1OC)C(=O)OCc1cc(F)cc(F)c1
